# US10471119B2, “Composition for preventing, ameliorating, or treating neurological disease containing osmotin peptide as active ingredient” (INDUSTRY-ACADEMIC COOPERATION FOUNDATION GYEONGSANG …, priority 2015, dated 2019)
# Residues, ends and D or L forms follow the SMILES beside them.
# Legend:
# [1] = tested on: human neuroblast line SH-SY5Y; test: ApoTox-Glo Triplex assay (cell viability, cytotoxicity, caspase-3 activity); assay type: cell-based; conditions: neuronal cells
# Method: Human neuroblast line SH-SY5Y cells were cultured in 100 μl of dulbecco modified eagle medium (DMEM) supplemented with 10% (v/v) fetal bovine serum (FBS) and 1% (w/v) antibiotic (penicillin-streptomycin) at 37° C. and under the condition of 5% CO2.
# Cells were seeded in a 96-well plate containing growth medium (DMEM medium containing 10% FBS, 100 units/ml penicillin, and […] streptomycin) in such a way that 100 μl of the culture was seeded in every cell at the population of 2×10^4 cells, and cultured under the condition of 5% CO2 at 37° C. When cells were about 70-90% confluent, they were transformed with pCAX-APP Swe/Ind for 8 hours by using Lipofectamine 3000 according to the manufacturers instructions. Then, the medium was removed by suction and replaced with fresh 100 μl of growth medium containing 0.5 to 20 μM osmotin-peptide. The cells in the fresh medium were incubated for 24 hours.
# After 24 hours, ApoTox-Glo™ Triplex assay using Glomax-Multi Detection system was performed according to the manufacturer's instructions to confirm cell viability, cytotoxicity assay, and caspase-3 activity.
# [2] = Brain transfer of osmotin peptide-FITC after IP and tail vein (IV) injection, confocal fluorescence; assay type: in vivo, mice; conditions: for migration to the hippocampus of the brain: four hours later, FIG. 3
# Method: In addition, osmotin peptide-FITC was administered to the mice by intraperitoneal (IP) injection and tail vein injection (IV). Four hours later, the mice were fixed by transcardial perfusion with 4% (v/v) ice-cold paraformaldehyde, and the brain was harvested and post-fixed in 4% (v/v) paraformaldehyde for 72 hours, and finally, transferred to a 20% (w/v) sucrose for 72 hours.
# The brain was infiltrated with OCT (optimal cutting temperature compound) under liquid nitrogen, and a 14 μm coronal section was mounted on a ProbeOn Plus slide.
# Slides for immunofluorescence analysis were washed twice with 0.01 M PBS buffer for 15 minutes. The sections were covered with proteinase K and incubated for 5 minutes in a humid chamber at the temperature of 37° C. Incubation was performed for one hour in a blocking solution containing 5% (v/v) normal goat serum dissolved in PBS buffer and 0.3% (v/v) Triton X-100. After the blocking process, the mounting cover slips and sections were observed on a confocal laser-scanning microscope (Flouview FV 1000).
smiles,measurement,setting,value
C[C@@H](O)[C@H](NC(=O)[C@@H]1CCCN1C(=O)CNC(=O)[C@H](CS)NC(=O)[C@@H]1CCCN1C(=O)CNC(=O)[C@H](CCC(N)=O)NC(=O)[C@@H](NC(=O)[C@@H](N)CS)[C@@H](C)O)C(=O)O [osmotin peptide] (H-CTQGPCGPT-OH),cytotoxicity,[1],little cytotoxicity
same,migration to the hippocampus of the brain,[2]; intraperitoneal (IP) injection,migrated to the hippocampus of the brain
same,migration to cortex and hypothalamus of the brain,"[2]; intravenous injection, FIG. 4",migrated to cortex and hypothalamus of the brain
same,migration to the hippocampus of the brain,[2]; tail vein injection (IV),migrated to the hippocampus of the brain
